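Briefly, cells in 96-well plates were exposed to five compound concentrations for 48 h, and endpoints were estimated by linear interpolation. GI50 is the concentration that inhibits growth by half.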 The source made the active and inactive calls. Cut-off read from the data, not from the text of the source: active = GI50 up to about 1.1 µM and inactive = higher. Residues, ends and D or L forms follow the SMILES beside them. *: point of attachment. Boc = CC(C)(C)OC(=O)*; OBn = c1ccc(CO*)cc1
Columns and labels:
Experiment in all cases: NCI anticancer screen, dose series, 48 h
KM12 = test system: KM12
BT-549 = test system: BT-549
T47D = test system: T47D
CCRF-CEM = test system: CCRF-CEM
HOP-92 = test system: HOP-92
UO-31 = test system: UO-31
NCI/ADR-RES = test system: NCI/ADR-RES
U-251 = test system: U-251
Malme-3M = test system: Malme-3M
LOX IMVI = test system: LOX IMVI
HCC 2998 = test system: HCC 2998
HCT-15 = test system: HCT-15
SNB-19 = test system: SNB-19
DU-145 = test system: DU-145
OVCAR-5 = test system: OVCAR-5
EKVX = test system: EKVX
UACC-257 = test system: UACC-257
SK-MEL-5 = test system: SK-MEL-5
RXF 393 = test system: RXF 393
Hs-578T = test system: Hs-578T

Structure (SMILES) | GI50 (KM12) | GI50 (BT-549) | GI50 (T47D) | GI50 (CCRF-CEM) | GI50 (HOP-92) | GI50 (UO-31) | GI50 (NCI/ADR-RES) | GI50 (U-251) | GI50 (Malme-3M) | GI50 (LOX IMVI) | GI50 (HCC 2998) | GI50 (HCT-15) | GI50 (SNB-19) | GI50 (DU-145) | GI50 (OVCAR-5) | GI50 (EKVX) | GI50 (UACC-257) | GI50 (SK-MEL-5) | GI50 (RXF 393) | GI50 (Hs-578T)
Cc1ccc2nc(-c3ccc(N)c(Br)c3)sc2c1 | 7.41 µM (inactive) | 14.9 µM (inactive) | 0.655 µM (active) | 3.37 µM (inactive) | 19.7 µM (inactive) | 5.27 µM (inactive) | 52.1 µM (inactive) | 37.5 µM (inactive) | > 100 µM (inactive) | 13.2 µM (inactive) | 2.64 µM (inactive) | 7.01 µM | 81.8 µM (inactive) | 31.5 µM (inactive) | 47.3 µM (inactive) | 15.2 µM (inactive) | 20 µM (inactive) | 79.1 µM (inactive) | 18.2 µM (inactive) | 14.2 µM (inactive)
c1cncc(C(Nc2cccc3cccnc23)Nc2cccc3cccnc23)c1 | > 100 µM (inactive) | > 100 µM (inactive) | > 100 µM (inactive) | 66.1 µM (inactive) | > 100 µM (inactive) | 83.8 µM (inactive) | > 100 µM (inactive) | > 100 µM (inactive) |  | > 100 µM (inactive) | > 100 µM (inactive) | > 100 µM | > 100 µM (inactive) | > 100 µM (inactive) | > 100 µM (inactive) | 69.7 µM (inactive) | > 100 µM (inactive) | > 100 µM (inactive) | 77.3 µM (inactive) | > 100 µM (inactive)
O=C(Cn1c(C(=O)/C=C/c2cccs2)nc2ccccc21)c1ccc(Cl)cc1 | 11.1 µM (inactive) | 21 µM (inactive) | 36.3 µM (inactive) |  | 23.3 µM (inactive) | 24.1 µM (inactive) | 14 µM (inactive) | 14.4 µM (inactive) | 13.6 µM (inactive) | 13.9 µM (inactive) | 14.8 µM (inactive) | 21.5 µM | 25.5 µM (inactive) | 26.7 µM (inactive) | > 100 µM (inactive) |  | 17.9 µM (inactive) | 14.4 µM (inactive) | 29.2 µM (inactive) | 12.8 µM (inactive)
CCN1C[C@]2(C)CC[C@H](OCc3ccccc3)C34C5C[C@@H]6CC[C@](O)(C(C[C@@H]32)C14)C5[C@H]6OCc1ccccc1 (stereo partly specified) | 38.5 µM (inactive) | > 100 µM (inactive) | 56.1 µM (inactive) | 56.5 µM (inactive) | > 100 µM (inactive) | 73.1 µM (inactive) | > 100 µM (inactive) | 64.9 µM (inactive) | > 100 µM (inactive) | > 100 µM (inactive) | 20 µM (inactive) | > 100 µM | > 100 µM (inactive) | > 100 µM (inactive) | > 100 µM (inactive) | 44.7 µM (inactive) | 29.9 µM (inactive) | 51.3 µM (inactive) | 53.1 µM (inactive) | > 100 µM (inactive)
COC(=O)c1cc2c3c(ccc2[nH]1)N(C(=O)c1cc2cc(OC)c(OC)c(OC)c2[nH]1)CC3CCl (stereo unspecified) | 6.4 µM (inactive) | 3.51 µM (inactive) | > 100 µM (inactive) | 5.98 µM (inactive) | > 100 µM (inactive) | 7.59 µM (inactive) | 12.2 µM (inactive) | 6.58 µM (inactive) | 8.59 µM (inactive) | 4.98 µM (inactive) | > 100 µM (inactive) | 5.71 µM | > 100 µM (inactive) | 6.44 µM (inactive) | > 100 µM (inactive) | > 100 µM (inactive) | 81.5 µM (inactive) | 2.23 µM (inactive) | 5.51 µM (inactive) | 8.45 µM (inactive)
CCOC(CBr)OC1C(=O)OCC1(C)C (stereo unspecified) | > 100 µM (inactive) | > 100 µM (inactive) | > 100 µM (inactive) | > 100 µM (inactive) | > 100 µM (inactive) | > 100 µM (inactive) | > 100 µM (inactive) | > 100 µM (inactive) | > 100 µM (inactive) | > 100 µM (inactive) | > 100 µM (inactive) | > 100 µM | > 100 µM (inactive) | > 100 µM (inactive) | > 100 µM (inactive) | > 100 µM (inactive) | > 100 µM (inactive) | > 100 µM (inactive) | > 100 µM (inactive) | > 100 µM (inactive)
CC(C)CC(NC(=O)OC(C)(C)C)C(=O)NC(CC(=O)OCc1ccccc1)C(=O)OCc1ccccc1 (stereo not drawn) (Boc-Leu-Asp(OBn)-OBn; configuration not given here) | 41.8 µM (inactive) | 81.5 µM (inactive) | > 100 µM (inactive) | 33.1 µM (inactive) | 30.6 µM (inactive) | 27 µM (inactive) | > 100 µM (inactive) | 25.5 µM (inactive) | 51.5 µM (inactive) | 22.8 µM (inactive) | 20.9 µM (inactive) |  | 29.4 µM (inactive) | 37.9 µM (inactive) | > 100 µM (inactive) | > 100 µM (inactive) | 32.9 µM (inactive) | 24.7 µM (inactive) | 26.1 µM (inactive) | > 100 µM (inactive)
N=c1oc2ccc(Cl)cc2cc1C(N)=O | 24.2 µM (inactive) | 35.2 µM (inactive) | 24.8 µM (inactive) | 40.6 µM (inactive) | 36 µM (inactive) |  | 34.4 µM (inactive) | 40.4 µM (inactive) | 17.6 µM (inactive) | 31.8 µM (inactive) | 25.7 µM (inactive) | 29.4 µM | 26.7 µM (inactive) | 35.9 µM (inactive) | 27 µM (inactive) |  | 45.4 µM (inactive) | 20.5 µM (inactive) | 29.6 µM (inactive) | 18.5 µM (inactive)
O=c1[nH]nc(Cc2ccccc2)n1/N=C/c1ccccc1Cl | > 100 µM (inactive) | > 100 µM (inactive) | > 100 µM (inactive) |  | 95.9 µM (inactive) | > 100 µM (inactive) | > 100 µM (inactive) | 53.1 µM (inactive) | > 100 µM (inactive) | > 100 µM (inactive) | > 100 µM (inactive) | > 100 µM | > 100 µM (inactive) | > 100 µM (inactive) | > 100 µM (inactive) | > 100 µM (inactive) | > 100 µM (inactive) | > 100 µM (inactive) | 3.56 µM (inactive) | 43.4 µM (inactive)
C=C1CN(C2=NCCO2)C1 | > 100 µM (inactive) | > 100 µM (inactive) | > 100 µM (inactive) | > 100 µM (inactive) | > 100 µM (inactive) | > 100 µM (inactive) | > 100 µM (inactive) |  | > 100 µM (inactive) | > 100 µM (inactive) | > 100 µM (inactive) | > 100 µM | > 100 µM (inactive) | > 100 µM (inactive) | > 100 µM (inactive) | > 100 µM (inactive) | > 100 µM (inactive) | > 100 µM (inactive) | > 100 µM (inactive) | > 100 µM (inactive)
O=c1n(CC2CO2)c(=O)n(CC2CO2)c(=O)n1CC1CO1 (stereo unspecified) [TEROXIRONE] | 56.1 µM (inactive) | 11.5 µM (inactive) | 17.3 µM (inactive) | 3.6 µM (inactive) | 39.3 µM (inactive) | 25.7 µM (inactive) | 34 µM (inactive) | 11 µM (inactive) | 25.4 µM (inactive) | 14.1 µM (inactive) | 43.7 µM (inactive) |  | 26.2 µM (inactive) | 6.97 µM (inactive) | 67.8 µM (inactive) | 96.2 µM (inactive) | 32.7 µM (inactive) |  | 37 µM (inactive) | 33.8 µM (inactive)
CCCCCCCCCCOc1ccc(/N=N/c2nnc(-c3ccc(OCCCCC)cc3)s2)cc1 | 62.4 µM (inactive) | > 100 µM (inactive) | > 100 µM (inactive) | > 100 µM (inactive) | > 100 µM (inactive) |  | > 100 µM (inactive) | > 100 µM (inactive) | > 100 µM (inactive) | > 100 µM (inactive) | > 100 µM (inactive) | > 100 µM | > 100 µM (inactive) | > 100 µM (inactive) | > 100 µM (inactive) | > 100 µM (inactive) | 49.9 µM (inactive) | > 100 µM (inactive) | 65 µM (inactive) | > 100 µM (inactive)
O=C(NCCC(F)(F)C(F)(F)C(F)(F)C(F)(F)F)NC1OC(CO)C(O)C(O)C1O (stereo unspecified) | > 100 µM (inactive) | > 100 µM (inactive) | > 100 µM (inactive) | > 100 µM (inactive) | > 100 µM (inactive) | > 100 µM (inactive) | > 100 µM (inactive) | > 100 µM (inactive) | > 100 µM (inactive) | > 100 µM (inactive) | > 100 µM (inactive) | > 100 µM | > 100 µM (inactive) | > 100 µM (inactive) | > 100 µM (inactive) |  | > 100 µM (inactive) | > 100 µM (inactive) | > 100 µM (inactive) | > 100 µM (inactive)
O=[N+]([O-])c1ccc(NN=C2c3ccccc3Cc3ccccc32)c([N+](=O)[O-])c1 | 2.98 µM (inactive) | > 100 µM (inactive) | 35.8 µM (inactive) | 3.1 µM (inactive) | 20.8 µM (inactive) | > 26.4 µM (inactive) | 4.82 µM (inactive) | 4.5 µM (inactive) | 3.39 µM (inactive) | 7.87 µM (inactive) | 6.41 µM (inactive) | 6.43 µM |  | > 30.4 µM (inactive) | 12.3 µM (inactive) | 5.37 µM (inactive) | 6.35 µM (inactive) | 4.27 µM (inactive) | > 24.4 µM (inactive) | 4.07 µM (inactive)
O=C(CCc1ccc(O)c(O)c1)NCCc1cc(O)cc(OCc2ccccc2)c1 | 29.7 µM (inactive) | 10.6 µM (inactive) | 15.3 µM (inactive) | 6.87 µM (inactive) | 36.5 µM (inactive) | 4.69 µM (inactive) | 43.5 µM (inactive) | 26.6 µM (inactive) |  | 26.3 µM (inactive) | 17.1 µM (inactive) | 11.6 µM | 6.22 µM (inactive) | 43.3 µM (inactive) | 87.9 µM (inactive) | 53.5 µM (inactive) | > 100 µM (inactive) | 13.5 µM (inactive) | 83.4 µM (inactive) | 45.9 µM (inactive)

— ChEMBL document CHEMBL1201862, “PubChem BioAssay data set” (2004)
